Laboratory results taken from PMC5433425 (PeerJ, 2017).
Several values for one entry are separate records, joined by “and”; a condition that tells them apart may be missing. Equal values may be shown once. Read-outs that look alike come from different tables or passages of the source.

Key:
E. coli AG100A = conditions: EtBr […] + inhibitor 20 µM
E. coli AG100 = experiment: EtBr efflux by real-time fluorometry; conditions: for EtBr fluorescence (Channel Cycling A.530/585hp): 80 µM, + glucose
Experimental: Control tubes with only cells and cells with and without 0.4% glucose were included. The fluorescence was measured in a Rotor-Gene 3000 and the data was acquired every 30 s for 30 min at 37 °C. The efflux activity was quantified by comparing the fluorescence data obtained under conditions that promote efflux (presence of glucose and absence of efflux inhibitor) with the data from the control in which the bacteria are under conditions of no efflux (presence of an inhibitor and no energy source).

[1] = test system: E. coli AG100A (AcrAB pump-deficient); experiment: MIC, broth microdilution; type: cell-based, Escherichia coli
[2] = test system: E. coli AG100tet (AcrAB overexpressing); experiment: MIC, broth microdilution; type: cell-based, Escherichia coli; conditions: E. coli AG100tet

CCCOc1ccc(-c2cc(OCCN3CCNCC3)c3ccccc3n2)cc1 [PQQ4R, 4-(2-(piperazin-1-yl)ethoxy)-2-(4-propoxyphenyl) quinolone]
EtBr fluorescence (E. coli AG100A; cycle 7): 6.784 | EtBr fluorescence (E. coli AG100A; cycle 8): 7.347 | EtBr fluorescence (E. coli AG100A; cycle 9): 7.957 | EtBr fluorescence (E. coli AG100A; cycle 10): 8.552 | EtBr fluorescence (E. coli AG100A; cycle 11): 9.107 | EtBr fluorescence (E. coli AG100A; cycle 12): 9.505 | EtBr fluorescence (E. coli AG100A; cycle 13): 10.1469 | EtBr fluorescence (E. coli AG100A; cycle 14): 10.666 | EtBr fluorescence (E. coli AG100A; cycle 15): 11.2994 | EtBr fluorescence (E. coli AG100A; cycle 16): 11.7134 | EtBr fluorescence (E. coli AG100A; cycle 17): 12.3988 | EtBr fluorescence (E. coli AG100A; cycle 18): 12.7522 | EtBr fluorescence (E. coli AG100A; cycle 19): 13.174 | EtBr fluorescence (E. coli AG100A; cycle 20): 13.8181 | EtBr fluorescence (E. coli AG100A; cycle 21): 14.2909 | EtBr fluorescence (E. coli AG100A; cycle 22): 14.7163 | EtBr fluorescence (E. coli AG100A; cycle 23): 15.2505 | EtBr fluorescence (E. coli AG100A; cycle 24): 16.0503 | EtBr fluorescence (E. coli AG100A; cycle 25): 16.1642 | EtBr fluorescence (E. coli AG100A; cycle 26): 16.8061 | EtBr fluorescence (E. coli AG100A; cycle 27): 17.3806 | EtBr fluorescence (E. coli AG100A; cycle 28): 17.8352 | EtBr fluorescence (E. coli AG100A; cycle 29): 18.1109 | EtBr fluorescence (E. coli AG100A; cycle 30): 18.6334 | inhibition of EtBr efflux (E. coli AG100; AG100, AG100A and AG100tet (Fig. 2), 80 μM (20 μM for AG100A), glucose, 37 °C): inhibited | EtBr fluorescence (Channel Cycling A.530/585hp) (E. coli AG100; cycle 1): 14.1835 | EtBr fluorescence (Channel Cycling A.530/585hp) (E. coli AG100; cycle 2): 12.9442 | EtBr fluorescence (Channel Cycling A.530/585hp) (E. coli AG100; cycle 3): 12.1458 | EtBr fluorescence (Channel Cycling A.530/585hp) (E. coli AG100; cycle 9): 9.004 | EtBr fluorescence (Channel Cycling A.530/585hp) (E. coli AG100; cycle 10): 8.5432 | EtBr fluorescence (Channel Cycling A.530/585hp) (E. coli AG100; cycle 11): 8.357 | EtBr fluorescence (Channel Cycling A.530/585hp) (E. coli AG100; cycle 12): 8.087 | EtBr fluorescence (Channel Cycling A.530/585hp) (E. coli AG100; cycle 13): 7.737 | EtBr fluorescence (Channel Cycling A.530/585hp) (E. coli AG100; cycle 14): 7.571 | EtBr fluorescence (Channel Cycling A.530/585hp) (E. coli AG100; cycle 15): 7.486 | EtBr fluorescence (Channel Cycling A.530/585hp) (E. coli AG100; cycle 16): 7.363 | EtBr fluorescence (Channel Cycling A.530/585hp) (E. coli AG100; cycle 17): 7.106 | EtBr fluorescence (Channel Cycling A.530/585hp) (E. coli AG100; cycle 18): 6.949 | EtBr fluorescence (Channel Cycling A.530/585hp) (E. coli AG100; cycle 19): 6.811 | EtBr fluorescence (Channel Cycling A.530/585hp) (E. coli AG100; cycle 20): 6.647 | EtBr fluorescence (Channel Cycling A.530/585hp) (E. coli AG100; cycle 21): 6.6451 | EtBr fluorescence (Channel Cycling A.530/585hp) (E. coli AG100; cycle 22): 6.375 | EtBr fluorescence (Channel Cycling A.530/585hp) (E. coli AG100; cycle 23): 6.294 | EtBr fluorescence (Channel Cycling A.530/585hp) (E. coli AG100; cycle 24): 6.27 | EtBr fluorescence (Channel Cycling A.530/585hp) (E. coli AG100; cycle 25): 6.171 | EtBr fluorescence (Channel Cycling A.530/585hp) (E. coli AG100; cycle 26): 6.0708 | EtBr fluorescence (Channel Cycling A.530/585hp) (E. coli AG100; cycle 27): 5.906 | EtBr fluorescence (Channel Cycling A.530/585hp) (E. coli AG100; cycle 28): 5.869 | EtBr fluorescence (Channel Cycling A.530/585hp) (E. coli AG100; cycle 29): 5.816 | EtBr fluorescence (Channel Cycling A.530/585hp) (E. coli AG100; cycle 30): 5.711 | EtBr fluorescence (Channel Cycling A.530/585hp) (E. coli AG100; cycle 31): 5.67 | EtBr fluorescence (Channel Cycling A.530/585hp) (E. coli AG100; cycle 32): 5.576 | EtBr fluorescence (Channel Cycling A.530/585hp) (E. coli AG100; cycle 33): 5.469 | EtBr fluorescence (Channel Cycling A.530/585hp) (E. coli AG100; cycle 34): 5.4 | EtBr fluorescence (Channel Cycling A.530/585hp) (E. coli AG100; cycle 35): 5.309 | EtBr fluorescence (Channel Cycling A.530/585hp) (E. coli AG100; cycle 36): 5.284 | EtBr fluorescence (Channel Cycling A.530/585hp) (E. coli AG100; cycle 37): 5.241 | EtBr fluorescence (Channel Cycling A.530/585hp) (E. coli AG100; cycle 38): 5.208 | EtBr fluorescence (Channel Cycling A.530/585hp) (E. coli AG100; cycle 39): 5.097 | EtBr fluorescence (Channel Cycling A.530/585hp) (E. coli AG100; cycle 40): 5.016 | EtBr fluorescence (Channel Cycling A.530/585hp) (E. coli AG100; cycle 41): 5.035 | EtBr fluorescence (Channel Cycling A.530/585hp) (E. coli AG100; cycle 42): 4.981 | EtBr fluorescence (Channel Cycling A.530/585hp) (E. coli AG100; cycle 43): 4.838 | EtBr fluorescence (Channel Cycling A.530/585hp) (E. coli AG100; cycle 44): 4.747 | MIC decrease against AG100A compared with wild-type parental strain ([1]; AG100A vs AG100): 8 fold | MIC ([1]; E. coli AG100A): 32 μg/ml and 81.7 μM | MIC [2]: >653.9 µM
